Assay results from publication PMC8464048 (Nucleic Acids Research, 2021).

Target: T1, EcGlyRS-FL (heterotetrameric (αβ)2 glycyl-tRNA synthetase) (Escherichia coli, UniProt P00960+P00961)
T1 construct: gene glyQ; full-length alpha (1-303) and full-length beta (1-689, C-terminal 6xHis), co-expressed in E. coli BL21(DE3); (αβ)2 heterotetramer
T1 sequence (P00960 1-303): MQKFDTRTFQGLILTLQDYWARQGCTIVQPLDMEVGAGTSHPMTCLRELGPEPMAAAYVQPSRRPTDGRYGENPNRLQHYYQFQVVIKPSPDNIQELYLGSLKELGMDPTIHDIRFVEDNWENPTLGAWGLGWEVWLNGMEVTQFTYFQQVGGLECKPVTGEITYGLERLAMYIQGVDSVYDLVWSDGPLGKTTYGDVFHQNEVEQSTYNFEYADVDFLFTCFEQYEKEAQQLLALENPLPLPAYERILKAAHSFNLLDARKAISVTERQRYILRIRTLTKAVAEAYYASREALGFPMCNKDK
T1 sequence (P00961 1-689): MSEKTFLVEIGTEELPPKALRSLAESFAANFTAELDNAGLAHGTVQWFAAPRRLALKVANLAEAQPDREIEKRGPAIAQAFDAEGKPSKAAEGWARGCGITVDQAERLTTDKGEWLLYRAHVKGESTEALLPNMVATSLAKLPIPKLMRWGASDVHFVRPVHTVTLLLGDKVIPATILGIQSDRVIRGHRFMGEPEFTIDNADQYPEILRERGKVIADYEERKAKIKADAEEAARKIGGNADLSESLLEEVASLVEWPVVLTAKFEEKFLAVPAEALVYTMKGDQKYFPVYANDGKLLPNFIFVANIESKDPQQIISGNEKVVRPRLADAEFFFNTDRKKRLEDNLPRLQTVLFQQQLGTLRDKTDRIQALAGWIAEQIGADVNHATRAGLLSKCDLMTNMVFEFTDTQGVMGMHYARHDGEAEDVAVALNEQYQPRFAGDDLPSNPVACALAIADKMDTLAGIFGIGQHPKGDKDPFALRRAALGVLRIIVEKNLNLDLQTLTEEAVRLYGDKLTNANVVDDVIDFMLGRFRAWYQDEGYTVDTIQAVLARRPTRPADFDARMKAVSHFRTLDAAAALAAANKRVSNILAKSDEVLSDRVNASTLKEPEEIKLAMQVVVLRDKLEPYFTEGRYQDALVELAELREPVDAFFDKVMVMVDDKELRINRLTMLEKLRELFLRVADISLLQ
Test: isothermal titration calorimetry, one-site fit
Type: binding

SMILES: Nc1ncnc2c1ncn2[C@@H]1O[C@H](COP(=O)(O)OP(=O)(O)OP(=O)(O)O)[C@@H](O)[C@H]1O [ATP]
- Kd: ~6 µM
